Like-named read-outs stand apart in the source and are kept apart here.
Molecular target: AChE (Homo sapiens, UniProt P22303)
Test: In vitro AChE inhibitory activity, Ellman's colorimetric method
Assay type: biochemical
Conditions: for relative potency (%): AChE inhibitory potency relative to donepezil hydrochloride (100)
[1] = in vitro AChE inhibition, mean ± standard error of the mean of three experiments

Chain of AChE (P22303 32-614): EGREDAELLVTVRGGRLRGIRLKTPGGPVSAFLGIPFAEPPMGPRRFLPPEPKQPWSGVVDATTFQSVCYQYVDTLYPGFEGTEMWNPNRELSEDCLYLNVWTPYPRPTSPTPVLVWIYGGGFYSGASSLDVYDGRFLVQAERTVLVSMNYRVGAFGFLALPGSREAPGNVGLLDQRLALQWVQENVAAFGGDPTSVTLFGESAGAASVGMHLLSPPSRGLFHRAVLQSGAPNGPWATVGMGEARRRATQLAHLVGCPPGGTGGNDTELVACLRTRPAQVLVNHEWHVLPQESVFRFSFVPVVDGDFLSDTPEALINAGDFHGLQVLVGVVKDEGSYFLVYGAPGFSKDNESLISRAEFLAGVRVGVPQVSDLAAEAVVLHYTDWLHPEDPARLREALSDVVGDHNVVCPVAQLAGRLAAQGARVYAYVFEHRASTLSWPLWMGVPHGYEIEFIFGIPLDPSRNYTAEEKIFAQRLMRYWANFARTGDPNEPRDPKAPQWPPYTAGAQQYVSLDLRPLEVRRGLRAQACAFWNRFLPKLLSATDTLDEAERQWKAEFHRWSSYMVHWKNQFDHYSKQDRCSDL

Row | Structure (SMILES) | IC50 [1] | relative potency (%) | IC50
1 | Cc1ccc(C=C2SC(Nc3nc(-c4ccc(C)cc4)cs3)=NC2=O)cc1 [Compound 8, 2-[4-(p-Tolylthiazol-2-yl)amino]-5-(4-methylbenzylidene)-4,5-dihydrothiazole-4-one] | 501 ± 14 nM | – | –
2 | Cc1ccc(-c2csc(NC3=NC(=O)C(=Cc4ccc(Cl)cc4Cl)S3)n2)cc1 [Compound 12, 2-[4-(p-Tolylthiazol-2-yl)amino]-5-(2,4-dichlorobenzylidene)-4,5-dihydrothiazole-4-one] | 336 ± 9.1 nM | – | –
3 | Cc1ccc(-c2csc(NC3=NC(=O)C(=Cc4ccc(Br)s4)S3)n2)cc1 [Compound 14, 2-[4-(p-Tolylthiazol-2-yl)amino]-5-[(5-bromothiophen-2-yl)methylene]-4,5-dihydrothiazole-4-one] | 380 ± 10 nM | – | –
4 | COc1ccc(-c2csc(NC3=NC(=O)C(=Cc4ccc(C)cc4)S3)n2)cc1 [Compound 15, 2-[4-(4-Methoxyphenylthiazol-2-yl)amino]-5-(4-methylbenzylidene)-4,5-dihydrothiazole-4-one] | 375 ± 10 nM | – | –
5 | COc1ccc(-c2csc(NC3=NC(=O)C(=Cc4ccc(OC)c(OC)c4)S3)n2)cc1 [Compound 17, 2-[4-(4-Methoxyphenylthiazol-2-yl)amino]-5-(3,4-dimethoxybenzylidene)-4,5-dihydrothiazole-4-one] | 176 ± 4.8 nM | 31.26% | –
6 | COc1ccc(-c2csc(NC3=NC(=O)C(=Cc4ccc(Cl)cc4)S3)n2)cc1 [Compound 18, 2-[4-(4-Methoxyphenylthiazol-2-yl)amino]-5-(4-chlorobenzylidene)-4,5-dihydrothiazole-4-one] | 193 ± 5.3 nM | 28.43% | –
7 | COc1ccc(-c2csc(NC3=NC(=O)C(=Cc4ccc(Cl)cc4Cl)S3)n2)cc1 [Compound 19, 2-[4-(4-Methoxyphenylthiazol-2-yl)amino]-5-(2,4-dichlorobenzylidene)-4,5-dihydrothiazole-4-one] | 731 ± 20 nM | – | –
8 | COc1ccc(-c2csc(NC3=NC(=O)C(=Cc4cccs4)S3)n2)cc1 [Compound 20, 2-[4-(4-Methoxyphenylthiazol-2-yl)amino]-5-[(thiophen-2-yl)methylene]-4,5-dihydrothiazole-4-one] | 260 ± 7.1 nM | – | –
9 | COc1ccc(-c2csc(NC3=NC(=O)C(=Cc4ccc(Br)s4)S3)n2)cc1 [Compound 21, 2-[4-(4-Methoxyphenylthiazol-2-yl)amino]-5-[(5-bromothiophen-2-yl)methylene]-4,5-dihydrothiazole-4-one] | 188 ± 5.1 nM | 29.28% | –
10 | CCN=C1SCC(=O)N1c1nc(-c2ccc(C)cc2)cs1 [Compound 28, 2-Ethylimino-3-[4-(p-tolyl)thiazol-2-yl]thiazolidin-4-one] | – | – | 478 ± 13 nM
11 | Cc1ccc(-c2csc(N3C(=O)CSC3=NCc3ccccc3)n2)cc1 [Compound 29, 2-Benzylimino-3-[4-(p-tolyl)thiazol-2-yl]thiazolidin-4-one] | – | – | 188 ± 5.1 nM
12 | CCN=C1SCC(=O)N1c1nc(-c2ccc(OC)cc2)cs1 [Compound 30, 2-Ethylimino-3-[4-(4-methoxyphenyl)thiazol-2-yl]thiazolidin-4-one] | – | – | 346 ± 9.4 nM
13 | COc1ccc(-c2csc(N3C(=O)CSC3=NCc3ccccc3)n2)cc1 [Compound 31, 2-Benzylimino-3-[4-(4-methoxyphenyl)thiazol-2-yl]thiazolidin-4-one] | – | 36.08% | 152 ± 4.1 nM
14 | COc1ccc(-c2csc(N3C(=O)C(=Cc4ccc(OC)c(OC)c4)SC3=NCc3ccccc3)n2)cc1 [Compound 32, 2-(Benzylimino)-5-(3,4-dimethoxybenzylidene)-3-[4-(4-methoxyphenyl)thiazol-2-yl]thiazolidin-4-one] | – | – | 450 ± 12 nM
15 | COc1ccc(-c2csc(N3C(=O)C(=Cc4ccc(Cl)cc4Cl)SC3=NCc3ccccc3)n2)cc1 [Compound 33, 2-(Benzylimino)-5-(2,4-dichlorobenzylidene)-3-[4-(4-methoxyphenyl)thiazol-2-yl]thiazolidin-4-one] | – | 29.27% | 188 ± 5.1 nM
